Test system: 429239-143-T-J1-PDC complex spheroid viability
Experiment: Anticancer human tumor 429239-143-T-J1-PDC patient-derived small cell lung carcinoma cell line growth inhibition [POLQ]
Conditions: for IC50: curve of first compound; for viability, T/C: stronger effect = lower value
Procedure, shortened: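 Three-cell-type spheroids modelling solid tumor plus stroma served as the readout system; POL inhibitors were tested individually and in combination, concentration ranges set by clinical Cmax where known.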

[1] = second compound 0.0316 µM, first compound 0.0316 µM
[2] = second compound 0.0316 µM, first compound 0.1 µM
[3] = second compound 0.0316 µM, first compound 0.316 µM
[4] = second compound 0.0316 µM, first compound 1 µM
[5] = second compound 0.0316 µM, first compound 3.16 µM
[6] = second compound 0.0316 µM, first compound 10 µM
[7] = second compound 0.1 µM, first compound 0.0316 µM
[8] = second compound 0.1 µM, first compound 0.1 µM
[9] = second compound 0.1 µM, first compound 0.316 µM
[10] = second compound 0.1 µM, first compound 1 µM
[11] = second compound 0.1 µM, first compound 3.16 µM
[12] = second compound 0.1 µM, first compound 10 µM
[13] = second compound 0.316 µM, first compound 0.0316 µM
[14] = second compound 0.316 µM, first compound 0.1 µM
[15] = second compound 0.316 µM, first compound 0.316 µM
[16] = second compound 0.316 µM, first compound 1 µM
[17] = second compound 0.316 µM, first compound 3.16 µM
[18] = second compound 0.316 µM, first compound 10 µM
[19] = second compound 1 µM, first compound 0.0316 µM
[20] = second compound 1 µM, first compound 0.1 µM
[21] = second compound 1 µM, first compound 0.316 µM
[22] = second compound 1 µM, first compound 1 µM
[23] = second compound 1 µM, first compound 3.16 µM
[24] = second compound 1 µM, first compound 10 µM
[25] = second compound 3.16 µM, first compound 0.0316 µM
[26] = second compound 3.16 µM, first compound 0.1 µM
[27] = second compound 3.16 µM, first compound 0.316 µM
[28] = second compound 3.16 µM, first compound 1 µM
[29] = second compound 3.16 µM, first compound 3.16 µM
[30] = second compound 3.16 µM, first compound 10 µM
[31] = second compound 10 µM, first compound 0.0316 µM
[32] = second compound 10 µM, first compound 0.1 µM
[33] = second compound 10 µM, first compound 0.316 µM
[34] = second compound 10 µM, first compound 1 µM
[35] = second compound 10 µM, first compound 3.16 µM
[36] = second compound 10 µM, first compound 10 µM
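Further: luminescence signal used as surrogate measure of viable cells; spheroids exposed to compounds for seven days before readout.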
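Wherever viability, T/C is given: 100% = DMSO vehicle control viability as luminescence relative to vehicle.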

CCc1cc2c(N3CCc4c(cc(Cn5ccnc5)cc4-c4cn(C)nc4C(F)(F)F)C3=O)ccnc2c(OC)n1 + COC1C(OC(N)=O)C(O)C(Oc2ccc3c(O)c(NC(=O)c4ccc(O)c(CC=C(C)C)c4)c(=O)oc3c2C)OC1(C)C
IC50 (second compound 0.0316 µM): 2760 nM
IC50 (second compound 0.1 µM): 2630 nM
IC50 (second compound 0.316 µM): 2660 nM
IC50 (second compound 1 µM): 2270 nM
IC50 (second compound 3.16 µM): 1720 nM
IC50 (second compound 10 µM): 843 nM
viability, T/C [1]: 93.4%
viability, T/C [2]: 96.9%
viability, T/C [3]: 71.1%
viability, T/C [4]: 68.2%
viability, T/C [5]: 45.8%
viability, T/C [6]: 39.6%
viability, T/C [7]: 107%
viability, T/C [8]: 93%
viability, T/C [9]: 69.5%
viability, T/C [10]: 74%
viability, T/C [11]: 42.3%
viability, T/C [12]: 32.6%
viability, T/C [13]: 86.2%
viability, T/C [14]: 74.3%
viability, T/C [15]: 73.5%
viability, T/C [16]: 65.5%
viability, T/C [17]: 45.1%
viability, T/C [18]: 33.4%
viability, T/C [19]: 89.7%
viability, T/C [20]: 83.9%
viability, T/C [21]: 61.8%
viability, T/C [22]: 62%
viability, T/C [23]: 49.2%
viability, T/C [24]: 32.8%
viability, T/C [25]: 96.7%
viability, T/C [26]: 74.8%
viability, T/C [27]: 71.5%
viability, T/C [28]: 50.5%
viability, T/C [29]: 46.4%
viability, T/C [30]: 37.3%
viability, T/C [31]: 91.8%
viability, T/C [32]: 85.7%
viability, T/C [33]: 67.8%
viability, T/C [34]: 46.7%
viability, T/C [35]: 40.2%
viability, T/C [36]: 39.6%

O=C(Nc1ccc(O)c(NS(=O)(=O)c2ccc(F)cc2)c1)c1ccc(-c2ccccc2)cc1 + COC1C(OC(N)=O)C(O)C(Oc2ccc3c(O)c(NC(=O)c4ccc(O)c(CC=C(C)C)c4)c(=O)oc3c2C)OC1(C)C
IC50 (second compound 0.0316 µM): > 10000 nM
IC50 (second compound 0.1 µM): > 10000 nM
IC50 (second compound 0.316 µM): > 10000 nM
IC50 (second compound 1 µM): > 10000 nM
IC50 (second compound 3.16 µM): > 10000 nM
IC50 (second compound 10 µM): > 10000 nM
viability, T/C [1]: 110%
viability, T/C [2]: 97.1%
viability, T/C [3]: 108%
viability, T/C [4]: 105%
viability, T/C [5]: 99%
viability, T/C [6]: 66.7%
viability, T/C [7]: 90.2%
viability, T/C [8]: 92.9%
viability, T/C [9]: 99.6%
viability, T/C [10]: 121%
viability, T/C [11]: 113%
viability, T/C [12]: 61.3%
viability, T/C [13]: 101%
viability, T/C [14]: 83.7%
viability, T/C [15]: 95.2%
viability, T/C [16]: 105%
viability, T/C [17]: 106%
viability, T/C [18]: 64.4%
viability, T/C [19]: 104%
viability, T/C [20]: 92.8%
viability, T/C [21]: 93%
viability, T/C [22]: 90.8%
viability, T/C [23]: 107%
viability, T/C [24]: 59.4%
viability, T/C [25]: 98.9%
viability, T/C [26]: 90%
viability, T/C [27]: 100%
viability, T/C [28]: 98.7%
viability, T/C [29]: 93.3%
viability, T/C [30]: 76.9%
viability, T/C [31]: 99.1%
viability, T/C [32]: 85.9%
viability, T/C [33]: 99%
viability, T/C [34]: 102%
viability, T/C [35]: 113%
viability, T/C [36]: 68.6%

— PubChem BioAssay AID1963845 (Molecular Pharmacology Branch, DTP, NCI, 2024)
